Data published in ChEMBL document CHEMBL1122448, “New carboxyalkyl inhibitors of brain enkephalinase: synthesis, biological activity, and analgesic properties” (J Med Chem, 1983).
Where a SMILES comes first, the peptide text is derived from it.

Assays:
Mus musculus = experiment: Number of writhings 10 min after intracerebroventricular administration of 10 microg 3 and ip administration of naloxone (10 min before compound is administered).; assay type: functional
[1] = molecular target: T1, Angiotensin-converting enzyme (Mus musculus, UniProt P09470)
T1 sequence (P09470 whole entry): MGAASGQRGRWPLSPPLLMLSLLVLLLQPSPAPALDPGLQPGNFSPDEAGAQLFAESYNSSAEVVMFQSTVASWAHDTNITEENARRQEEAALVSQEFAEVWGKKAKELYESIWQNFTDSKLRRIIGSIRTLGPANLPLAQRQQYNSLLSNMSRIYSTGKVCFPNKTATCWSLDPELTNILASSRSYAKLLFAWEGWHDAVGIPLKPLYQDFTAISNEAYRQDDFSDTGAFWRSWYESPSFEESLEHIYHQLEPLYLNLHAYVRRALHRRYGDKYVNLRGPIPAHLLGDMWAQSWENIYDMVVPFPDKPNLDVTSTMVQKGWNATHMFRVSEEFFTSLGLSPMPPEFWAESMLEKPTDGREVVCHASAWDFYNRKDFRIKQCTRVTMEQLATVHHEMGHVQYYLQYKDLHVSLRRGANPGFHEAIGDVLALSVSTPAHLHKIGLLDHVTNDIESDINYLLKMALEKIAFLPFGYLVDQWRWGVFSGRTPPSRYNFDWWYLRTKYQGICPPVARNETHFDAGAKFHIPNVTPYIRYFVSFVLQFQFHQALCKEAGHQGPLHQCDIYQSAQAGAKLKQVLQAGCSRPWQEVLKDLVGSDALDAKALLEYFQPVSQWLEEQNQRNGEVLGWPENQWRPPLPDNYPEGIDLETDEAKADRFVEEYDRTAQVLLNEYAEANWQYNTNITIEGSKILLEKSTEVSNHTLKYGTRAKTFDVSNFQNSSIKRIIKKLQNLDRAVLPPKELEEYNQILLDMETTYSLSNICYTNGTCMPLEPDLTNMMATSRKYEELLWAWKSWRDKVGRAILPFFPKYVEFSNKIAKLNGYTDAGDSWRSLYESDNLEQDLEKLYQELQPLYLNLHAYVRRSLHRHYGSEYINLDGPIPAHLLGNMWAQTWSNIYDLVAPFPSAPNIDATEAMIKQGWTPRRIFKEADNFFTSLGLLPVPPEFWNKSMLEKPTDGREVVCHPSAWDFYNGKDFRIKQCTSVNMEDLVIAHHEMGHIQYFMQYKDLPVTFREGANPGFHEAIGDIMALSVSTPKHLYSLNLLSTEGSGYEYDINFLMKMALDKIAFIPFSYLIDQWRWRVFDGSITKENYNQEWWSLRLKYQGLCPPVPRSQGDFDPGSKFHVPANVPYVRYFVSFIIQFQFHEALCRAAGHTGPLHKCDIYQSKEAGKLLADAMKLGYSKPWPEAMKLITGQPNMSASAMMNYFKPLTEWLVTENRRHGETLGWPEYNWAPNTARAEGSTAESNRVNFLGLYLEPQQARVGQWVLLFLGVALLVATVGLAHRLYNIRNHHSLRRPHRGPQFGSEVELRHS
Description: 50% Inhibitory potency against Angiotensin I converting enzyme from mouse striatum.

Neprilysin = molecular target: T2, Neprilysin (Mus musculus, UniProt Q61391)
T2 sequence (Q61391 whole entry): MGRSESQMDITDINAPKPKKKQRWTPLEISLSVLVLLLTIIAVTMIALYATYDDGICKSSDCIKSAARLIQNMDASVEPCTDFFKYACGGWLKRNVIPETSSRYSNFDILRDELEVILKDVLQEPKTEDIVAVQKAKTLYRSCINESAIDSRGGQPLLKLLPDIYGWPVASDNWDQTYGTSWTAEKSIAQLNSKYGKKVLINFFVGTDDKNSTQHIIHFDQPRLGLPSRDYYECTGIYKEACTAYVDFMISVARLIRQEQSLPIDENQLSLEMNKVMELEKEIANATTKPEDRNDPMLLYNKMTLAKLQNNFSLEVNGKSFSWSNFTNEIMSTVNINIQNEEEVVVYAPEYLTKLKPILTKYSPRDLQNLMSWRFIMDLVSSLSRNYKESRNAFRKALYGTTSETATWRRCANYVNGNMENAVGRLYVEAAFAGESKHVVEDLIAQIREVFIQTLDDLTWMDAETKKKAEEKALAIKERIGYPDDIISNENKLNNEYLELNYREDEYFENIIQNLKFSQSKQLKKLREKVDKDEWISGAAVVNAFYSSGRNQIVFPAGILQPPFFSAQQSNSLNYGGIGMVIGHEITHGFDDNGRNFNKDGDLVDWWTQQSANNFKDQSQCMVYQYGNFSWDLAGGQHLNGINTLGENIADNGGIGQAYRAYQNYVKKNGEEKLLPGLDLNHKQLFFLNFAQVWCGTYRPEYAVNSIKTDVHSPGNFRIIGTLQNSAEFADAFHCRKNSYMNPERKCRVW
Description: 50% Inhibitory potency against enkephalinase from mouse striatum.

[2] = molecular target: T1, Angiotensin-converting enzyme; experiment: 50% Inhibitory potency against angiotensin I converting enzyme from mouse striatum.

SMILES: C=CCN1CC[C@]23c4c5ccc(O)c4O[C@H]2C(=O)CC[C@@]3(O)[C@H]1C5 [NALOXONE]
- Writhing number (Mus musculus): 31.2

SMILES: CC(C)CC(NC(=O)C(Cc1ccccc1)C(=O)O)C(=O)O (stereo not drawn)
- IC50 [1]: > 1000 µM
- IC50 (Neprilysin): 0.7 µM
- Writhing number (Mus musculus): 29.7

SMILES: CC(C)CC(NC(=O)C(Cc1ccccc1)NCCC(=O)O)C(=O)O (stereo not drawn)
- IC50 [2]: > 100 µM
- IC50 (Neprilysin): 11 µM

SMILES: CC(C)C[C@@H](NC(=O)[C@@H](Cc1ccccc1)NCC(=O)O)C(=O)O
- IC50 (Neprilysin): 18 µM

SMILES: CC(C)CC(NC(=O)[C@H](Cc1ccccc1)NCC(=O)O)C(=O)O (single isomer, unassigned)
- IC50 (Neprilysin): 11 µM

SMILES: CC(C)C[C@H](NC(=O)[C@H](Cc1ccccc1)NCC(=O)O)C(=O)O
- IC50 [2]: 2 µM
- IC50 (Neprilysin): 2 µM

SMILES: CC(C)C[C@H](NC(=O)[C@@H](N)Cc1ccccc1)C(=O)O (H-Phe-Leu-OH)
- IC50 [1]: 700 µM
- IC50 (Neprilysin): 20 µM

SMILES: CC(C)C[C@H](NC(=O)[C@@H](Cc1ccccc1)NCC(=O)O)C(=O)O
- IC50 (Neprilysin): > 100 µM

SMILES: C=CCN1CC[C@]23c4c5ccc(O)c4O[C@H]2C(=O)CC[C@@]3(O)[C@H]1C5.CC(C)CC(NC(=O)C(Cc1ccccc1)C(=O)O)C(=O)O
- Writhing number (Mus musculus): 29.7

SMILES: CC(C)CC(NC(=O)C(CC(=O)O)Cc1ccccc1)C(=O)O (stereo not drawn)
- IC50 [2]: 20 µM
- IC50 (Neprilysin): 0.8 µM

SMILES: C[C@H](NC(=O)[C@H](Cc1ccccc1)NCC(=O)O)C(=O)O
- IC50 [2]: 4 µM
- IC50 (Neprilysin): 0.5 µM
